From US9290427B2, “Anti-invasive compounds” (Universiteit Gent, priority 2012, dated 2016)

Test system: MCF-7/6 mammary carcinoma cells
Test: chick heart invasion assay
Assay type: cell-based, human
Set-up: unit not given here
Details: for Actual in vitro activity class: compounds 37-51, Table 11; for Actual class: training set compounds 37-51, class = log cmin, lowest concentration with invasion grade I or II; for anti-invasive activity class act.: validation set, in vitro
Source text: “Anti-invasive” or “anti-invasive activity” is the ability to inhibit the invasiveness of tumor cells. Invasion by tumor cells is defined as the progressive occupation and destruction of their environment, and is the result of matrix degradation and directional cell motility. Anti-invasive activity of a compound is the ability to inhibit or block invasion, and can be assessed by counting the number of invading cells, by the depth of their invasion and/or by the amount of environmental destruction. Many assays in vitro can be applied to test for anti-invasive activity (for a complete list see Bracke et al. 2008). The three most popular ones are: • Chick heart invasion assay (Bracke et al., 2001, see details below). The cut-off value is between grade II (non-invasive) and grade III (invasive). […] Collagen gels, prepared on the bottom of plastic wells are covered with a test cell suspension, and incubated with liquid culture medium for 24 h. Invasion is evaluated with an inverted phase-contrast microscope, and is based on the percentage of cells showing extensions in the gel. […] Matrigel is a mixture of basement membrane components, and is applied as a semi-solid layer on top a filter with pores allowing the transgression of cells. The test cell suspension is seeded on top of the gel, and incubated for 1 day in a two-compartment chamber system. Invasion is then evaluated via the percentage of cells that are attached to the lower side of the filter.
In the chick heart invasion assay cancer cells are confronted with a fragment of normal tissue, so as not to neglect the contribution of the host tissue in the micro-ecosystem that governs tumor behavior. As such, precultured heart tissue fragments (PHFs), dissected from 9-day-old chicken embryos, may be confronted with aggregates of human invasive MCF-7/6 mammary carcinoma cells in the presence of a certain concentration of a test compound. After eight days, the interaction between the cancer cells and the PHF is evaluated histologically and classified along a 5-grades subjective scale (Bracke et al., 2001). Grades III and IV are typical for invasion, while grades 0, I and II correspond to absence of invasion. Compounds that inhibit invasion of confronting cancer cells i.e. from III/IV to 0/I/II, are determined as anti-invasive. Possible alternative assays generally known in the art are the type I collagen invasion assay, wound healing assay and the matrigel invasion assay.
“Anti-invasive” refers to the ability to inhibit invasion of the tumor or cancer cell into surrounding tissue (within or outside the organ of origin). […] This screening method confronts cancer cells with a fragment of normal tissue, so as not to neglect the contribution of the host tissue in the micro-ecosystem that governs tumor behavior. The interaction between the cancer cells and the normal tissue is evaluated histologically and classified along a 5-grades subjective scale. Grades III and IV are typical for invasion, while grades 0, I and II correspond to absence of invasion. Compounds that inhibit invasion of confronting cancer cells i.e. from III/IV to 0/I/II, are determined as anti-invasive. Possible alternative assays generally known in the art are the type I collagen invasion assay and the Matrigel invasion assay.
The potency of these molecules had been evaluated by means of the chick heart invasion assay, as described herein before.

Compound | Actual in vitro activity class | Actual class | anti-invasive activity class act.
COc1ccc(C(=O)/C=C/c2ccccc2)cc1 [Compound 38, (2E)-3-phenyl-1-(4-methoxyphenyl)propenone] | 1 (about 10) | 1 (about 10) | 
COc1ccc(/C=C/C(=O)c2ccccc2)cc1 [Compound 39, (2E)-3-(4-Methoxyphenyl)-1-phenylpropenone] | 1 (about 10) | 1 (about 10) | 
COc1ccc(/C=C/C(=O)c2ccc(OC)cc2)cc1 [Compound 40, (2E)-3-(4-Methoxyphenyl)-1-(4-methoxyphenyl)propenone] | 1 (about 10) | 1 (about 10) | 
COc1ccc(C(=O)/C=C/c2cccc(OC)c2)cc1 [Compound 41, (2E)-3-(3-Methoxyphenyl)-1-(4-methoxyphenyl)propenone] | 0 (about 1) | 0 (about 1) | 
COc1cc(OC)c(C(=O)/C=C/c2cc(OC)c(OC)cc2OC)c(OC)c1 [Compound 42, (2E)-3-(2,4,5-Trimethoxyphenyl)-1-(2,4,6-trimethoxyphenyl)propenone] | 1 (about 10) | 1 (about 10) | 
COc1ccc(C(=O)/C=C/c2cc(OC)c(OC)cc2OC)cc1 [Compound 44, (2E)-3-(2,4,5-Trimethoxyphenyl)-1-(4-methoxyphenyl)propenone] | 0 (about 1) | 0 (about 1) | 
COc1ccc(C(=O)/C=C/c2c(OC)cc(OC)cc2OC)cc1 [Compound 45, (2E)-1-(4-methoxyphenyl)-3-(2,4,6-trimethoxyphenyl)prop-2-en-1-one] | −1 (about 0.1) | −1 (about 0.1) | 
COc1cc(OC)c(OC)cc1/C=C/C(=O)c1c(OC)cccc1OC [Compound 46, (2E)-3-(2,4,5-Trimethoxyphenyl)-1-(2,6-dimethoxyphenyl)propenone] | 1 (about 10) | 1 (about 10) | 
COc1cc(OC)c(/C=C/C(=O)c2c(OC)cccc2OC)c(OC)c1 [Compound 47, (2E)-3-(2,4,6-Trimethoxyphenyl)-1-(2,6-dimethoxyphenyl)propenone] | 0 (about 1) | 0 (about 1) | 
COc1ccc(C(=O)/C=C/c2ccc(F)cc2)cc1 [Compound 48, (2E)-3-(4-Fluorophenyl)-1-(4-methoxyphenyl)propenone] | 0 (about 1) | 0 (about 1) | 
O=C(/C=C/c1ccc(F)cc1)c1ccc(F)cc1 [Compound 50, (2E)-3-(4-Fluorophenyl)-1-(4-fluorophenyl)propenone] | 1 (about 10) | 1 (about 10) | 
COc1ccc(C(=O)/C=C/c2ccc(Cl)cc2)cc1 [Compound 52, (2E)-3-(4-chlorophenyl)-1-(4-methoxyphenyl)prop-2-en-1-one] |  |  | −2 (about 0.01)
O=C(/C=C/c1cccc(F)c1)c1ccc(F)cc1 [Compound 53, (2E)-3-(3-Fluorophenyl)-1-(4-fluorophenyl)propenone] |  |  | −1 (about 0.1)
COc1ccc(C(=O)/C=C/c2cccc(F)c2)cc1 [Compound 54, (2E)-3-(3-Fluorophenyl)-1-(4-methoxyphenyl)propenone] |  |  | 1 (about 10)
COc1ccc(C(=O)/C=C/c2ccccc2F)cc1 [Compound 55, (2E)-3-(2-Fluorophenyl)-1-(4-methoxyphenyl)propenone] |  |  | 1 (about 10)
O=C(/C=C/c1ccc(F)cc1)c1ccc(O)cc1 [Compound 58, (2E)-3-(4-Fluorophenyl)-1-(4-hydroxyphenyl)propenone] |  |  | 1 (about 10)
CC(C)=CCOc1ccc(C(=O)/C=C/c2ccc(F)cc2)cc1 [Compound 62, (2E)-3-(4-Fluorophenyl)-1-[4-(3-methylbut-2-enyloxy)phenyl]propenone] |  |  | >=2 (about 100)
O=C(C=Cc1ccc(F)cc1)c1ccco1 [Compound 68, 1-(2-Furyl)-3-(4-fluorophenyl)propenone] |  |  | 1 (about 10)
